Experimental data as given in ChEMBL document CHEMBL3769336, “Discovery of a Chemical Tool Inhibitor Targeting the Bromodomains of TRIM24 and BRPF” (J Med Chem, 2016).
Active and inactive are the calls of the source. No cut-off for these calls is given here.

Key:
MCF7 = assay: Cytotoxicity against human MCF7 cells at 5x10'-5 M to 8x10'-8 M after 72 hrs by CellTiter-Glo assay; type: functional, cell-based
[1] = target: T1, Bromodomain and PHD finger-containing protein 3 (Homo sapiens, UniProt Q9ULD4); assay: Inhibition of BRPF3 (unknown origin) by Alpha Screen assay
T1 sequence (Q9ULD4 whole entry): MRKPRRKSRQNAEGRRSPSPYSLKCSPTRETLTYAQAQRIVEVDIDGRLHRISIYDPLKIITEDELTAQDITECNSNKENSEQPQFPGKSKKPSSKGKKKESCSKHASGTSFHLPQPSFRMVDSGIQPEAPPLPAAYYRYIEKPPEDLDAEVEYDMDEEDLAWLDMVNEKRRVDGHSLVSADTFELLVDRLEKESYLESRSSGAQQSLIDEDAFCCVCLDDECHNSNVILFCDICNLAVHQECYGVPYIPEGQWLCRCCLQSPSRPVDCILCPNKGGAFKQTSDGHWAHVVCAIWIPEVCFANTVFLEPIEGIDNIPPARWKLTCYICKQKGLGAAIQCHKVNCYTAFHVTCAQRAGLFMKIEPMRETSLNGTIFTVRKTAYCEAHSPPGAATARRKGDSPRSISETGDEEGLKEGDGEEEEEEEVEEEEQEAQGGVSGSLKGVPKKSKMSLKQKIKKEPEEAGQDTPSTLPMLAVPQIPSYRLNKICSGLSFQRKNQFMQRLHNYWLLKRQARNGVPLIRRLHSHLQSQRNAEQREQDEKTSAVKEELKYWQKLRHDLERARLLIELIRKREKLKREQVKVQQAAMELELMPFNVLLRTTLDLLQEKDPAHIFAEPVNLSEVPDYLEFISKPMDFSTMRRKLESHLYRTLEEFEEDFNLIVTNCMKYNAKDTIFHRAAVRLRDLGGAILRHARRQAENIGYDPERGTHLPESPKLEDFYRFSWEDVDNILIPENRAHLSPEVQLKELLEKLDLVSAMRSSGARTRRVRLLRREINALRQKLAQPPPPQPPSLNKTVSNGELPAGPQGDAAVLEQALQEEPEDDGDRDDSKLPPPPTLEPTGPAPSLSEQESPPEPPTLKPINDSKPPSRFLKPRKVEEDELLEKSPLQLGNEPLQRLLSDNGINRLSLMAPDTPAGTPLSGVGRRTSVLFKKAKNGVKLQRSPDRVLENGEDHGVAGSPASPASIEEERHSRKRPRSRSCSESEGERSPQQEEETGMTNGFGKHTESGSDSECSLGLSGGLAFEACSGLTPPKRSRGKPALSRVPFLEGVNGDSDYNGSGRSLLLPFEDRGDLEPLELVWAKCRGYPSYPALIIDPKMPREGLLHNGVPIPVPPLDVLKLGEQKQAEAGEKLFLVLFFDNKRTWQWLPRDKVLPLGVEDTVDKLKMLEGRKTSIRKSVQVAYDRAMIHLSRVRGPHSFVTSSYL

[2] = Cytotoxicity against human MM1S cells after 72 hrs by CellTiter-Glo assay; type: functional; details: MM1.S
RKO = assay: Cytotoxicity against human RKO cells at 5x10'-5 M to 8x10'-8 M after 72 hrs by CellTiter-Glo assay; type: functional, cell-based
RCH-ACV = assay: Cytotoxicity against human RCH-ACV cells at 5x10'-5 M to 8x10'-8 M after 72 hrs by CellTiter-Glo assay; type: functional, cell-based
Peregrin = target: T2, Peregrin (Homo sapiens, UniProt P55201); assay: Binding affinity to BRPF1B (unknown origin) by isothermal titration calorimetry
T2 sequence (P55201 whole entry): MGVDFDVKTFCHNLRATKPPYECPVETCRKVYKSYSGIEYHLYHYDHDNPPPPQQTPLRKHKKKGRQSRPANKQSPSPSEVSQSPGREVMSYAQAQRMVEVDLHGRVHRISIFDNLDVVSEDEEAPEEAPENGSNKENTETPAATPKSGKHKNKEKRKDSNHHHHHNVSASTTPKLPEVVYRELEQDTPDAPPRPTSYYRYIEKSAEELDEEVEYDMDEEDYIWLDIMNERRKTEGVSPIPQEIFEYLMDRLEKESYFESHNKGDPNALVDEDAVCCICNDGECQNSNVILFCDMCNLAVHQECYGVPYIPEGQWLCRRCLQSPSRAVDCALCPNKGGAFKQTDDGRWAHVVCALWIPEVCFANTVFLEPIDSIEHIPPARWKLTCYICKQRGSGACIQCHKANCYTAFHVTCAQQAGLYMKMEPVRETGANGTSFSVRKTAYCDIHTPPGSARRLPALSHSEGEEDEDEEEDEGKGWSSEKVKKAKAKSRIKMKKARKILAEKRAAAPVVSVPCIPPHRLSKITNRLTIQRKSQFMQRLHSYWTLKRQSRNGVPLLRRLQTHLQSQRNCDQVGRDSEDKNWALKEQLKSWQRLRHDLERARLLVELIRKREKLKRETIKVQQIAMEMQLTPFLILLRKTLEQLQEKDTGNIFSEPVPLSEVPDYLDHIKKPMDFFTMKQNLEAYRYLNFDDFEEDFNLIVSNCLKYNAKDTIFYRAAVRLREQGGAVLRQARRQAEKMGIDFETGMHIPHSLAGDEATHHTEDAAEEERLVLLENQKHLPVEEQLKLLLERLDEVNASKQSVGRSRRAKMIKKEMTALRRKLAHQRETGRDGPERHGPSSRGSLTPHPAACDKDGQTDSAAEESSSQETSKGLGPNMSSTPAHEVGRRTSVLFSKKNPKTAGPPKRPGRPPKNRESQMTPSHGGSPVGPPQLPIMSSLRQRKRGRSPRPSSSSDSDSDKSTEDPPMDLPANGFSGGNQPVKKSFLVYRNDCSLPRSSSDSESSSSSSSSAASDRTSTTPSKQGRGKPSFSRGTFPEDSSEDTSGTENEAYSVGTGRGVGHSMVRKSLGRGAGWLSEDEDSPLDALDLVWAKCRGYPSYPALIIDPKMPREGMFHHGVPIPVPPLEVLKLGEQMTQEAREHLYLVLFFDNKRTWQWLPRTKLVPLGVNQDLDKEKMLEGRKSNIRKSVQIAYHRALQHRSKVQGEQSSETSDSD

IC50 [1]: 7 µM
Kd (Peregrin): 0.137 µM
Structure (SMILES): COc1ccc(Oc2cc3c(cc2NS(=O)(=O)c2ccc(OC)c(OC)c2)n(C)c(=O)n3C)cc1
Activity (MCF7): inactive
GI50 [2]: > 10 µM
Activity (RKO): inactive
Activity (RCH-ACV): inactive
